Test results: US6946472B2, “Polycyclic compounds exhibiting anti-tumor activities” (Hoffman-La Roche Inc., priority 2002, dated 2005)
pIC50: −log10 of the molar value.

Test system: HCT116 cell line (colorectal cancer)
Test: Anti-proliferative activity assay (WST-8)
Assay type: cell-based
Conditions: Homo sapiens, HCT-116, 96 h; in vitro growth of HCT116, 4 days incubation, WST-8, concentration yielding 50% OD of control growth
Protocol: A single suspension of tumor cells was inoculated to the serially diluted 96-well microtestplate. Then the testplate was incubated in the 5% CO2 ambience at 37° C. for 4 days (2-3×10^3 cells/well). The degree of cell growth in a monolayer was measured by using WST-8 (Dojindo, Japan). IC50 values of the polycyclic compounds directed against tumor cells were calculated as the concentration of drug yielding 50% OD of the control growth.
The anti-tumor activity of polycyclic compounds of the formula [I] against in vitro growth of HCT116 cell line (colorectal cancer) is summarized in Table 1.

| Compound | pIC50 |
| --- | --- |
| CN(CCCN(C)CCNc1nc2ccccc2c2c1C(=O)c1ccncc1-2)CCNc1nc2ccccc2c2c1C(=O)c1cnccc1-2 [Example 15, 6-{2-[methyl-(3-{methyl-[2-(7-oxo-7H-5,10-diaza-benzo[c]fluoren-6-ylamino)-ethyl]-amino}-propyl)-amino]-ethylamino}-5,9-diaza-benzo[c]fluoren-7-one] | 9.89 |
| CN(CCCN(C)CCNc1nc2cc(Cl)ccc2c2c1C(=O)c1cnccc1-2)CCNc1nc2cc(Cl)ccc2c2c1C(=O)c1cnccc1-2 [Example 6, 3-chloro-6-{2-[(3-{[2-(3-chloro-7-oxo-7H-5,9-diaza-benzo[c]fluoren-6-ylamino)-ethyl]-methyl-amino}-propyl)-methyl-amino]-ethylamino}-5,9-diaza-benzo[c]fluoren-7-one] | 10.70 |
| COc1ccc2c3c(c(NCCN(C)CCCN(C)CCNc4nc5ccccc5c5c4C(=O)c4cnccc4-5)nc2c1)C(=O)c1cnccc1-3 [Example 16, 3-methoxy-6-{2-[methyl-(3-{methyl-[2-(7-oxo-7H-5,9-diaza-benzo[c]fluoren-6-ylamino)-ethyl]-amino}-propyl)-amino]-ethylamino}-5,9-diaza-benzo[c]fluoren-7-one] | 10.10 |
| CN(CCCN(C)CCNc1nc2ccccc2c2c1C(=O)c1ccncc1-2)CCNc1nc2ccccc2c2c1C(=O)c1ccncc1-2 [Example 10, 6-{2-[methyl-(3-{methyl-[2-(7-oxo-7H-5,10-diaza-benzo[c]fluoren-6-ylamino)-ethyl]-amino}-propyl)-amino]-ethylamino}-5,10-diaza-benzo[c]fluoren-7-one] | 9.52 |
| CN(CCCN(C)CCNc1nc2ccccc2c2c1C(=O)c1cnccc1-2)CCNc1nc2ccccc2c2c1C(=O)c1cnccc1-2 [Example 5, 6-{2-[methyl-(3-{methyl-[2-(7-oxo-7H-5,9-diaza-benzo[c]fluoren-6-ylamino)-ethyl]-amino}-propyl)-amino]-ethylamino}-5,9-diaza-benzo[c]fluoren-7-one] | 9.19 |
| CN(C)CCNc1nc2cc(O)ccc2c2c1C(=O)c1ccccc1-2 [Reference compound, 6-(2-dimethylamino-ethylamino)-3-hydroxy-7H-indeno[2,1-c]quinolin-7-one, reference compound] | 7.92 |
